{"source": "ChEMBL document CHEMBL3885881", "about": "“DrugMatrix”", "species_on_record": "Rattus norvegicus", "experiment": "DrugMatrix - Regimen: Daily Repeat", "format": "toxicity, organism-based, Sprague-Dawley", "set-up": "regimen Daily Repeat, gender Male, age 6-8 weeks", "conditions": "in vivo, po, 10 mg/kg, route oral GAVAGE, dose level Low, vehicle 100 % WATER; for ABSOLUTE BASOPHIL / ABSOLUTE EOSINOPHIL / ABSOLUTE LYMPHOCYTE / ABSOLUTE MONOCYTE / ABSOLUTE SEGMENTED NEUTROPHIL / BASOPHIL / EOSINOPHIL / ERYTHROCYTE COUNT / HEMATOCRIT / HEMOGLOBIN / LEUKOCYTE COUNT / LYMPHOCYTE / MEAN CORPUSCULAR HEMOGLOBIN / MEAN CORPUSCULAR HEMOGLOBIN CONCENTRATION / MEAN CORPUSCULAR VOLUME / MONOCYTE / NEUTROPHIL / NUCLEATED RED BLOOD CELLS / PLATELET COUNT: tissue Blood; for ALANINE AMINOTRANSFERASE / ALBUMIN / ALKALINE PHOSPHATASE / ASPARTATE AMINOTRANSFERASE / BLOOD UREA NITROGEN / CARBON DIOXIDE / CHLORIDE / CHOLESTEROL / CREATINE PHOSPHOKINASE / CREATININE / GLUCOSE / LIPASE / PHOSPHORUS / POTASSIUM / SODIUM / TOTAL BILIRUBIN / TOTAL PROTEIN / URIC ACID: tissue Plasma", "data": [{"smiles": "Fc1ccc([C@@H]2CCNC[C@H]2COc2ccc3c(c2)OCO3)cc1", "note": "[PAROXETINE]", "values": [{"measurement": "ABSOLUTE BASOPHIL", "setting": "72 h, time 3 day", "value": 0, "unit": "CELLS/uL"}, {"measurement": "ABSOLUTE EOSINOPHIL", "setting": "72 h, time 3 day", "value": 33, "unit": "CELLS/uL"}, {"measurement": "ABSOLUTE LYMPHOCYTE", "setting": "72 h, time 3 day", "value": 7114.67, "unit": "CELLS/uL"}, {"measurement": "ABSOLUTE MONOCYTE", "setting": "72 h, time 3 day", "value": 0, "unit": "CELLS/uL"}, {"measurement": "ABSOLUTE SEGMENTED NEUTROPHIL", "setting": "72 h, time 3 day", "value": 519, "unit": "CELLS/uL"}, {"measurement": "BASOPHIL", "setting": "72 h, time 3 day", "value": 0, "unit": "%"}, {"measurement": "EOSINOPHIL", "setting": "72 h, time 3 day", "value": 0.33, "unit": "%"}, {"measurement": "ERYTHROCYTE COUNT", "setting": "72 h, time 3 day", "value": 5.11, "unit": "x10E6/uL"}, {"measurement": "HEMATOCRIT", "setting": "72 h, time 3 day", "value": 31.5, "unit": "%"}, {"measurement": "HEMOGLOBIN", "setting": "72 h, time 3 day", "value": 12.33, "unit": "G/DL"}, {"measurement": "LEUKOCYTE COUNT", "setting": "72 h, time 3 day", "value": 7.67, "unit": "x10E3/uL"}, {"measurement": "LYMPHOCYTE", "setting": "72 h, time 3 day", "value": 92.67, "unit": "%"}, {"measurement": "MEAN CORPUSCULAR HEMOGLOBIN", "setting": "72 h, time 3 day", "value": 24.2, "unit": "pg"}, {"measurement": "MEAN CORPUSCULAR HEMOGLOBIN CONCENTRATION", "setting": "72 h, time 3 day", "value": 39.2, "unit": "G/DL"}, {"measurement": "MEAN CORPUSCULAR VOLUME", "setting": "72 h, time 3 day", "value": 61.7, "unit": "fL"}, {"measurement": "MONOCYTE", "setting": "72 h, time 3 day", "value": 0, "unit": "%"}, {"measurement": "NEUTROPHIL", "setting": "72 h, time 3 day", "value": 7, "unit": "%"}, {"measurement": "NUCLEATED RED BLOOD CELLS", "setting": "72 h, time 3 day", "value": "0.33 /100WBC"}, {"measurement": "PLATELET COUNT", "setting": "72 h, time 3 day", "value": 979, "unit": "x10E3/uL"}, {"measurement": "ALANINE AMINOTRANSFERASE", "setting": "72 h, time 3 day", "value": 52.67, "unit": "u/L"}, {"measurement": "ALBUMIN", "setting": "72 h, time 3 day", "value": 4, "unit": "G/DL"}, {"measurement": "ALKALINE PHOSPHATASE", "setting": "72 h, time 3 day", "value": 368, "unit": "u/L"}, {"measurement": "ASPARTATE AMINOTRANSFERASE", "setting": "72 h, time 3 day", "value": 88.67, "unit": "u/L"}, {"measurement": "BLOOD UREA NITROGEN", "setting": "72 h, time 3 day", "value": 16, "unit": "mg/dL"}, {"measurement": "CARBON DIOXIDE", "setting": "72 h, time 3 day", "value": 35.33, "unit": "mmol/L"}, {"measurement": "CHLORIDE", "setting": "72 h, time 3 day", "value": 100.33, "unit": "MEQ/L"}, {"measurement": "CHOLESTEROL", "setting": "72 h, time 3 day", "value": 67.33, "unit": "mg/dL"}, {"measurement": "CREATINE PHOSPHOKINASE", "setting": "72 h, time 3 day", "value": 233, "unit": "u/L"}, {"measurement": "CREATININE", "setting": "72 h, time 3 day", "value": 0.14, "unit": "mg/dL"}, {"measurement": "GLUCOSE", "setting": "72 h, time 3 day", "value": 119.33, "unit": "mg/dL"}, {"measurement": "LIPASE", "setting": "72 h, time 3 day", "value": 9.33, "unit": "u/L"}, {"measurement": "PHOSPHORUS", "setting": "72 h, time 3 day", "value": 10.97, "unit": "mg/dL"}, {"measurement": "POTASSIUM", "setting": "72 h, time 3 day", "value": 6.17, "unit": "MEQ/L"}, {"measurement": "SODIUM", "setting": "72 h, time 3 day", "value": 145.03, "unit": "MEQ/L"}, {"measurement": "TOTAL BILIRUBIN", "setting": "72 h, time 3 day", "value": 0.2, "unit": "mg/dL"}, {"measurement": "TOTAL PROTEIN", "setting": "72 h, time 3 day", "value": 5.83, "unit": "G/DL"}, {"measurement": "URIC ACID", "setting": "72 h, time 3 day", "value": 0.77, "unit": "mg/dL"}, {"measurement": "ABSOLUTE BASOPHIL", "setting": "120 h, time 5 day", "value": 0, "unit": "CELLS/uL"}, {"measurement": "ABSOLUTE EOSINOPHIL", "setting": "120 h, time 5 day", "value": 0, "unit": "CELLS/uL"}, {"measurement": "ABSOLUTE LYMPHOCYTE", "setting": "120 h, time 5 day", "value": 6074.67, "unit": "CELLS/uL"}, {"measurement": "ABSOLUTE MONOCYTE", "setting": "120 h, time 5 day", "value": 188.33, "unit": "CELLS/uL"}, {"measurement": "ABSOLUTE SEGMENTED NEUTROPHIL", "setting": "120 h, time 5 day", "value": 703.67, "unit": "CELLS/uL"}, {"measurement": "BASOPHIL", "setting": "120 h, time 5 day", "value": 0, "unit": "%"}, {"measurement": "EOSINOPHIL", "setting": "120 h, time 5 day", "value": 0, "unit": "%"}, {"measurement": "ERYTHROCYTE COUNT", "setting": "120 h, time 5 day", "value": 5.7, "unit": "x10E6/uL"}, {"measurement": "HEMATOCRIT", "setting": "120 h, time 5 day", "value": 34.77, "unit": "%"}, {"measurement": "HEMOGLOBIN", "setting": "120 h, time 5 day", "value": 13.23, "unit": "G/DL"}, {"measurement": "LEUKOCYTE COUNT", "setting": "120 h, time 5 day", "value": 6.97, "unit": "x10E3/uL"}, {"measurement": "LYMPHOCYTE", "setting": "120 h, time 5 day", "value": 86.67, "unit": "%"}, {"measurement": "MEAN CORPUSCULAR HEMOGLOBIN", "setting": "120 h, time 5 day", "value": 23.2, "unit": "pg"}, {"measurement": "MEAN CORPUSCULAR HEMOGLOBIN CONCENTRATION", "setting": "120 h, time 5 day", "value": 38.07, "unit": "G/DL"}, {"measurement": "MEAN CORPUSCULAR VOLUME", "setting": "120 h, time 5 day", "value": 61, "unit": "fL"}, {"measurement": "MONOCYTE", "setting": "120 h, time 5 day", "value": 2.33, "unit": "%"}, {"measurement": "NEUTROPHIL", "setting": "120 h, time 5 day", "value": 11, "unit": "%"}, {"measurement": "NUCLEATED RED BLOOD CELLS", "setting": "120 h, time 5 day", "value": "0 /100WBC"}, {"measurement": "PLATELET COUNT", "setting": "120 h, time 5 day", "value": 1176.67, "unit": "x10E3/uL"}, {"measurement": "ALANINE AMINOTRANSFERASE", "setting": "120 h, time 5 day", "value": 56.33, "unit": "u/L"}, {"measurement": "ALBUMIN", "setting": "120 h, time 5 day", "value": 4.17, "unit": "G/DL"}, {"measurement": "ALKALINE PHOSPHATASE", "setting": "120 h, time 5 day", "value": 432.67, "unit": "u/L"}, {"measurement": "ASPARTATE AMINOTRANSFERASE", "setting": "120 h, time 5 day", "value": 87.67, "unit": "u/L"}, {"measurement": "BLOOD UREA NITROGEN", "setting": "120 h, time 5 day", "value": 17, "unit": "mg/dL"}, {"measurement": "CARBON DIOXIDE", "setting": "120 h, time 5 day", "value": 31.67, "unit": "mmol/L"}, {"measurement": "CHLORIDE", "setting": "120 h, time 5 day", "value": 99.67, "unit": "MEQ/L"}, {"measurement": "CHOLESTEROL", "setting": "120 h, time 5 day", "value": 81, "unit": "mg/dL"}, {"measurement": "CREATINE PHOSPHOKINASE", "setting": "120 h, time 5 day", "value": 254, "unit": "u/L"}, {"measurement": "CREATININE", "setting": "120 h, time 5 day", "value": 0.19, "unit": "mg/dL"}, {"measurement": "GLUCOSE", "setting": "120 h, time 5 day", "value": 152.67, "unit": "mg/dL"}, {"measurement": "LIPASE", "setting": "120 h, time 5 day", "value": 9.67, "unit": "u/L"}, {"measurement": "PHOSPHORUS", "setting": "120 h, time 5 day", "value": 10.57, "unit": "mg/dL"}, {"measurement": "POTASSIUM", "setting": "120 h, time 5 day", "value": 6.09, "unit": "MEQ/L"}, {"measurement": "SODIUM", "setting": "120 h, time 5 day", "value": 145.13, "unit": "MEQ/L"}, {"measurement": "TOTAL BILIRUBIN", "setting": "120 h, time 5 day", "value": 0.2, "unit": "mg/dL"}, {"measurement": "TOTAL PROTEIN", "setting": "120 h, time 5 day", "value": 6.03, "unit": "G/DL"}, {"measurement": "URIC ACID", "setting": "120 h, time 5 day", "value": 0.77, "unit": "mg/dL"}]}]}
